Reference: patent US7868139B2, “Compositions and methods for the identification and treatment of immune-mediated inflammatory diseases” (UAB Research Foundation, priority 2006, dated 2011)
Entries after “also recorded” stand apart in the source; their conditions may differ. Peptide text beside a SMILES is read from it. * marks the point of attachment. Cbz = O=C(OCc1ccccc1)*; OtBu = CC(C)(C)O*

B1: ovalbumin (protein, UniProt P01012 2-386, looked up)
Ovalbumin: GSIGAASMEFCFDVFKELKVHHANENIFYCPIAIMSALAMVYLGAKDSTRTQINKVVRFDKLPGFGDSIEAQCGTSVNVHSSLRDILNQITKPNDVYSFSLASRLYAEERYPILPEYLQCVKELYRGGLEPINFQTAADQARELINSWVESQTNGIIRNVLQPSSVDSQTAMVLVNAIVFKGLWEKAFKDEDTQAMPFRVTEQESKPVQMMYQIGLFRVASMASEKMKILELPFASGTMSMLVLLPDEVSGLEQLESIINFEKLTEWTSSNVMEERKIKVYLPRMKMEEKYNLTSVLMAMGITDVFSSSANLSGISSAESLKISQAVHAAHAEINEAGREVVGSAEAGVDAASVSEEFRADHPFLFCIKHIATNAVLFFGRCVSP
notes: internal positive control antigen; exogenous foreign neoantigen

Legend:
[1] = system: mice; conditions: mouse, in vivo
[2] = system: DO11.10 CD4^+ T cells; assay: T cell cytokine assays (ELISA of culture supernatants); assay type: cell-based, mouse; conditions: PSI-pretreated, OVA peptide-pulsed BMDC
Description: […] The culture supernatants (SN) were collected at different times and pooled together for assay. SN collected after 24 hr of culture were used for IL-2 assay and SN collected at 72 h of culture were used for IL-10, IL-4, and IFNγ assays. The cytokine content in SN was determined by ELISA as previously described by Cong et al. (Cong et al., CD4+ T cells reactive to enteric bacterial antigens in spontaneously colitic C3H/HeJBir mice: increased T helper cell type 1 response and ability to transfer disease. Journal of Experimental Medicine 187:855 (1998).

[3] = system: BMDC; assay: Maturation of LPS-stimulated BMDC (costimulatory molecules, cytokines); assay type: cell-based, mouse; conditions: PSI-pulsed BMDC stimulated with LPS
[4] = system: DO11.10.RAG2−/− CD4^+ T cells; assay: T cell proliferation assay with PSI-pretreated, OVA peptide-pulsed BMDC; assay type: cell-based, mouse; conditions: BMDC pretreated with 1 μM PSI 4 hrs, then OVA peptide 20 hrs; p<0.005
Description: Generation of PSI-APC Treg cells—BMDC generated from BALB/c mice were treated with 1 μM PSI dissolved in DMSO for 4 hrs and then 5 μg/ml OVA peptide for additional 20 hrs at 1×10^6/ml. After washing twice, the pretreated BMDC were added at 1×10^5/ml into cultures of 1×10^6 freshly isolated CD4^+ T cells from DO11.10.RAG2^−/− mice. Seven days later, the CD4^+ T cells were re-isolated with CD4-magnet beads (Pharmingen, San Diego, Calif.) and used to test for regulatory activity (PSI-APC Treg). Freshly isolated CD4^+ T cells from DO11.10.RAG2^−/− mice were also cultured with 5 μg/ml OVA peptide-pulsed BMDC as control, and used as memory T cells (Them).
After 4 d of incubation, 0.5 μCi of ^3H-thymidine was added to each culture for the last 18 hr of the incubation period. The cells were harvested on glass fiber filters on a PHD cell harvested (Cambridge Technology, Watertown, Mass.) and proliferation was assessed as the amount of incorporation of ^3H-thymidine into cell DNA, as measured by beta scintillation counting of the harvested samples. Data are expressed as CPM±SD.

[5] = system: NF-κB p65; assay: Measurement of nuclear NF-κB p65 in BMDC; assay type: cell-based, mouse; conditions: 1 μg/ml LPS plus 1 μM PSI for 60 min, compared to control
Description: Measurement of nuclear NF-κB—BMDC were treated with media alone, 1 μg/ml LPS, or LPS plus 1 μM PSI for 60 min. The nuclear extracts were made by using TransFactor Extraction Kit (Clontech Laboratories, Inc., Palo Alto, Calif.) based on the protocol recommended by the manufacturer. NF-κB p65 was measured by using Mercury TransFactor Kits (Clontech Labs, Inc., Palo Alto, Calif.) according to manufacturer's protocol.

[6] = system: Splenic CD4^+ T cells; assay: Antigen-specific proliferation of splenic CD4+ T cells (3H-thymidine); assay type: cell-based, mouse

Molecule | intestinal IgA response to OVA [1] | serum IgG response to OVA [1] | T cell IL-4 production [2] | reduction of T cell IFNα production [2] [%] | reduction of T cell IL-2 production [2] [%] | reduction of T cell IL-10 production [2] [%] | IL-10 production by BMDC [3] | IL-12p70 cytokine production [3] | expression of costimulatory molecules CD40, CD86 and MHC class II [3] | naïve CD4+ T cell proliferation to OVA peptide-pulsed BMDC [4] | NF-κB p65 in nuclear extracts [5] | median stimulation index ([6]; post immunization (day 35), 50 μg/ml antigen) | T cell proliferative response, stimulation index (SI) ([6]; unimmunized mice)
cholera toxin [CT] | strong intestinal IgA response | strong serum IgG response to OVA | – | – | – | – | – | – | – | – | – | – | –
CC[C@H](C)[C@H](NC(=O)OCc1ccccc1)C(=O)N[C@@H](CCC(=O)OC(C)(C)C)C(=O)N[C@@H](C)C(=O)N[C@H](C=O)CC(C)C [PSI, benzyloxycarbonyl-isoleucyl-glutamyl(O-tert-butyl)-alanyl-leucinal] (Cbz-IE(OtBu)AL-aldehyde) | – | – | no IL-4 production | 81 | 89 | 79 | not affected | did not upregulate | did not upregulate | inhibited T cell proliferation and cytokine production; also recorded: greatly decreased | inhibited BMDC NF-κβ activation; also recorded: reduced levels of NF-κB p65 | – | –
B1 | virtually no intestinal IgA to OVA | no serum IgG response to OVA | – | – | – | – | – | – | – | – | – | 17.1 | < 3
